# Data taken from patent publication US9290511B2, “Thieno-pyrimidines, useful as potassium channel inhibitors” (XENTION LIMITED, priority 2011, dated 2016).
# Target: T1, Kir3.1/3.4 (Rattus norvegicus, UniProt P48548+P63251)
# T1 construct: expressed in transfected cells
# T1 sequence (P63251 1-501): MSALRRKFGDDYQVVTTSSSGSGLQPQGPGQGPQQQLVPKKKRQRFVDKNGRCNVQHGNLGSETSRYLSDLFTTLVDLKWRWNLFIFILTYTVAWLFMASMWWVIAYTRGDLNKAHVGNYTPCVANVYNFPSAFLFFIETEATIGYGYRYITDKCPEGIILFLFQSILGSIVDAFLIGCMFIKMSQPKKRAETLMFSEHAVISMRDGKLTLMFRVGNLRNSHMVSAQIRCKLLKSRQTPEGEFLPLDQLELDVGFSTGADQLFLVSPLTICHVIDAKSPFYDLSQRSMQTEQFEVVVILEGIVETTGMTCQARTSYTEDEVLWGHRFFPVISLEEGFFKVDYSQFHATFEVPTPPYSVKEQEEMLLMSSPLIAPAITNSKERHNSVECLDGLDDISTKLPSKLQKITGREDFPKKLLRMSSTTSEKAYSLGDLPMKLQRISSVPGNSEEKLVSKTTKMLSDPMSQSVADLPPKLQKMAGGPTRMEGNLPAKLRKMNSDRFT
# T1 sequence (P48548 1-419): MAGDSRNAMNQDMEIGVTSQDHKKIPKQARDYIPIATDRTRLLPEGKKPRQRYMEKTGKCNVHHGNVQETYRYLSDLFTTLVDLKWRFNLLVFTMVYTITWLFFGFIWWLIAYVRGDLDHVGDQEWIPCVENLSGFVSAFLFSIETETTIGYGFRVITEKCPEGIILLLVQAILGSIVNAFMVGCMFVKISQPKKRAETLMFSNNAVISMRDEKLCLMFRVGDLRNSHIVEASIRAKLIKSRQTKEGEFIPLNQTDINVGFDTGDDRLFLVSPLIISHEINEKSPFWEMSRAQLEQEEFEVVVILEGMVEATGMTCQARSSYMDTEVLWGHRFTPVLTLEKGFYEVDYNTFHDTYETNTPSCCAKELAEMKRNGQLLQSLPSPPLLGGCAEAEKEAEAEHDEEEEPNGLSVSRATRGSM
# Assay: Kir3.1/3.4 Electrophysiology Method (manual whole-cell patch clamp)
# Type: cell-based
# Settings: Electrophysiology Method (TABLE 1)
# How it was run: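 Percent inhibition is relative to the pre-drug current, both leak-subtracted using a potassium-free bather, taken as the mean current at −140 mV. The protocol was a step to +60 mV, a ramp to −140 mV, then a return to −60 mV holding, every 10 s. Cells were rat Kir3.1/3.4-transfected HEK293 recorded by whole-cell patch clamp.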
row,Compound,IC50
1,"c1ccc(-c2csc3ncnc(N4CCC(CN5CCC(N6CCCC6)C5)CC4)c23)cc1 (stereo not drawn) [Example 76, 5-phenyl-4-[4-[(3-pyrrolidin-1-ylpyrrolidin-1-yl)methyl]-1-piperidyl]thieno[2,3-d]pyrimidine]",< 500 nM
2,"CC(C)NC1CC2CCC(C1)N2c1ncnc2scc(-c3ccccc3)c12 (stereo not drawn) [Example 327, N-isopropyl-8-(5-phenylthieno[2,3-d]pyrimidin-4-yl)-8-azabicyclo[3.2.1]octan-3-amine]",< 500 nM
3,O=C(NCCO)c1sc2ncnc(N3CCC(COCCN4CCCC4)CC3)c2c1-c1ccccc1 [Example 280],500 to 3000 nM
4,"Fc1ccc(-c2csc3ncnc(N4CCC(CNC5CC5)CC4)c23)cc1 [Example 77, N-[[1-[5-(4-fluorophenyl)thieno[2,3-d]pyrimidin-4-yl]-4-piperidyl]methyl]cyclopropanamine]",500 to 3000 nM
5,Cc1sc2nc(N3CCC(C(N)=O)C3)nc(N3CCC(CNCCC4CCCCN4C)CC3)c2c1C (stereo not drawn) [Example 240],< 500 nM
6,CN1CCN(c2nc(N3CCC(CNCCC4CCCN4C)CC3)c3c(-c4ccccc4)csc3n2)CC1 (stereo not drawn) [Example 114],500 to 3000 nM
7,"CN1CCCC1CNCC1CCN(c2ncnc3scc(-c4ccccc4)c23)CC1 (stereo not drawn) [Example 84, N-[(1-methylpyrrolidin-2-yl)methyl]-1-[1-(5-phenylthieno[2,3-d]pyrimidin-4-yl)-4-piperidyl]methanamine]",< 500 nM
8,CN1CCC(N(C)C2CCN(c3ncnc4scc(-c5ccccc5)c34)CC2)C1 (stereo not drawn) [Example 231],< 500 nM
9,"c1ccc(-c2csc3ncnc(N4CCC(CNCC5CC5)CC4)c23)cc1 [Example 49, 1-cyclopropyl-N-[[1-(5-phenylthieno[2,3-d]pyrimidin-4-yl)-4-piperidyl]methyl]methanamine]",< 500 nM
10,COc1ncccc1-c1csc2ncnc(N3C4CCC3CC(CO)C4)c12 (stereo not drawn) [Example 365],500 to 3000 nM
11,NC(=O)[C@@H]1CCCN1CCOCC1C2CN(c3ncnc4scc(-c5ccc(F)cc5)c34)CC12 (stereo partly drawn) [Example 277],< 500 nM
12,O=C1CN(CC2CCN(c3ncnc4scc(-c5ccccc5)c34)CC2)CCN1 [Example 213],500 to 3000 nM
13,"OCC1(NCC2CCN(c3ncnc4scc(-c5ccccc5)c34)CC2)CCCC1 [Example 54, [1-[[1-(5-phenylthieno[2,3-d]pyrimidin-4-yl)-4-piperidyl]methylamino]cyclopentyl]methanol]",< 500 nM
14,CC(C)NC(=O)c1sc2ncnc(N3CCC(COCCN4CCCC4)CC3)c2c1C(C)C [Example 264],500 to 3000 nM
15,"N-(2-pyrrolidin-1-ylethyl)thieno[2,3-d]pyrimidin-2-amine [Example 108]",500 to 3000 nM
16,c1ccc(-c2csc3nc(C4CC4)nc(N4C5CCC4CC(N4CCC4)C5)c23)cc1 (stereo not drawn) [Example 322],< 500 nM
17,"CC(C)c1csc2ncnc(N3CC4CC3CC4OCCN3CC4CC3CO4)c12 (stereo not drawn) [Example 292, 5-[2-[[2-(5-isopropylthieno[2,3-d]pyrimidin-4-yl)-2-azabicyclo[2.2.1]heptan-5-yl]oxy]ethyl]-2-oxa-5-azabicyclo[2.2.1]heptane]",500 to 3000 nM
18,"c1ccc(-c2csc3ncnc(N4[C@@H]5CC[C@H]4CC(COCCN4CCCC4)C5)c23)cc1 (stereo partly drawn) [Example 164, 5-phenyl-4-[(1S,5R)-3-(2-pyrrolidin-1-ylethoxymethyl)-8-azabicyclo[3.2.1]octan-8-yl]thieno[2,3-d]pyrimidine]",< 500 nM
19,c1ccc(-c2csc3ncnc(N4CC5CC4CC5OCCN4CCCC4)c23)cc1 (stereo not drawn) [Example 284],< 500 nM
20,NC(=O)C1CN(c2nc(N3CCC(COCCN4CCCC4)CC3)nc3scc(-c4ccccc4)c23)CCO1 (stereo not drawn) [Example 305],< 500 nM
21,CC(C)NCC1CC2CCC(C1)N2c1ncnc2scc(-c3ccccc3)c12 (stereo not drawn) [Example 334],< 500 nM
22,"CN(C)S(=O)(=O)c1ccc(-c2csc3ncnc(N4CCC(COCCN5CCCC5)CC4)c23)cc1 [Example 44, N,N-dimethyl-4-[4-[4-(2-pyrrolidin-1-ylethoxymethyl)-1-piperidyl]thieno[2,3-d]pyrimidin-5-yl]benzenesulfonamide]",500 to 3000 nM
23,CCOc1ncccc1-c1csc2ncnc(N3CCC(COCCN4CCCC4)CC3)c12 [Example 331],< 500 nM
24,Cc1csc2ncnc(N3CCC(CNCCC4CCCN4C)CC3)c12 (stereo not drawn) [Example 243],< 500 nM
25,"CN1CCCC1CCOCC1CCN(c2ncnc3sccc23)CC1 (stereo not drawn) [Example 3, 4-[4-[2-(1-methylpyrrolidin-2-yl)ethoxymethyl]-1-piperidyl]thieno[2,3-d]pyrimidine]",3000 to 10000 nM
26,OC1CCN(c2nc(NCCN3CCCC3)nc3scc(-c4ccccc4)c23)C1 (stereo not drawn) [Example 189],500 to 3000 nM

row,Compound,IC50
1,CC(=O)NC1CCN(c2nc(N3CCC(CN(C)C4CCN(C)C4)CC3)c3c(-c4ccccc4)csc3n2)C1 (stereo not drawn) [Example 226],< 500 nM
2,C[C@@H](CN(C)C)OCC1CCN(c2ncnc3scc(-c4ccccc4)c23)CC1 [Example 254],< 500 nM
3,c1ccc(-c2csc3ncnc(N4CCCC(CNC5CCC5)C4)c23)cc1 (stereo not drawn) [Example 207],500 to 3000 nM
4,NC(=O)C1CCN(c2nc(N3CCC(COCCN4CCCC4)CC3)c3c(-c4ccccc4)csc3n2)C1 (stereo not drawn) [Example 256],< 500 nM
5,COCC1CCN(c2nc(N3CCC(CO)CC3)nc3scc(-c4ccccc4)c23)CC1 [Example 191],< 500 nM
6,"CC(NC1CC1)C1CCN(c2ncnc3scc(-c4ccccc4)c23)CC1 (stereo not drawn) [Example 96, N-[1-[1-(5-phenylthieno[2,3-d]pyrimidin-4-yl)-4-piperidyl]ethyl]cyclopropanamine]",< 500 nM
7,CN1CCC(N(C)CC2CCN(c3nc(N4CCC(C(N)=O)CC4)nc4scc(-c5ccccc5)c34)CC2)C1 (stereo not drawn) [Example 239],< 500 nM
8,CC(=O)NC1CCN(c2nc(N3CCC(COCCN4CCCC4)CC3)c3c(-c4ccccc4)csc3n2)C1 (stereo not drawn) [Example 257],< 500 nM
9,CN(C)C1CCN(CC2CCN(c3nc(N4CCC(C(N)=O)C4)nc4scc(-c5ccccc5)c34)CC2)CC1 (stereo not drawn) [Example 235],< 500 nM
10,"c1ccc(-c2csc3ncnc(N4CCC(CNCCC5CCCN5)CC4)c23)cc1 (stereo not drawn) [Example 85, N-[[1-(5-phenylthieno[2,3-d]pyrimidin-4-yl)-4-piperidyl]methyl]-2-pyrrolidin-2-yl-ethanamine]",500 to 3000 nM
11,"c1ccc(-c2csc3nccc(N4CCC(COCCN5CCCC5)CC4)c23)cc1 [Example 142, 3-phenyl-4-[4-(2-pyrrolidin-1-ylethoxymethyl)-1-piperidyl]thieno[2,3-b]pyridine]",< 500 nM
12,CN(C)C1CCN(c2nc(NCCN3CCCC3)nc3scc(-c4ccccc4)c23)CC1 [Example 179],500 to 3000 nM
13,c1ccc(-c2csc3ncnc(N4CCC(COCCN5CCCC5)CC4)c23)nc1 [Example 320],500 to 3000 nM
14,Cc1csc2ncnc(N3CC(CNCCC4CCCN4C)CC3c3ccccc3)c12 (stereo not drawn) [Example 210],< 500 nM
15,CNC(=O)c1sc2ncnc(N3CCC(COCCN4CCCC4)CC3)c2c1C(C)C [Example 134],500 to 3000 nM
16,O=C1CCCN1c1sc2nc(N3CCC(COCCN4CCCC4)CC3)ncc2c1-c1ccccc1 [Example 156],< 500 nM
17,CN1CCC(N(C)CC2CCN(c3nc(N(C)CC(N)=O)nc4scc(-c5ccccc5)c34)CC2)C1 (stereo not drawn) [Example 121],< 500 nM
18,"COCC1CCN(c2nc(CCN3CCCC3)nc3scc(-c4ccc(F)cc4)c23)CC1 [Example 184, 5-(4-fluorophenyl)-4-[4-(methoxymethyl)-1-piperidyl]-2-(2-pyrrolidin-1-ylethyl)thieno[2,3-d]pyrimidine]",< 500 nM
19,CN1CCN(c2nc(N3CCC(CN4CCCC(N(C)C)C4)CC3)c3c(-c4ccccc4)csc3n2)CC1 (stereo not drawn) [Example 115],< 500 nM
20,"Fc1ccc(-c2csc3ncnc(N4CC5C(COCCN6CC[C@H](F)C6)C5C4)c23)cc1 (stereo partly drawn) [Example 47, 5-(4-fluorophenyl)-4-[6-[2-[(3S)-3-fluoropyrrolidin-1-yl]ethoxymethyl]-3-azabicyclo[3.1.0]hexan-3-yl]thieno[2,3-d]pyrimidine]",< 500 nM
21,"CC(=O)Nc1sc2ncnc(N3CCC(COCCN4CCCC4)CC3)c2c1-c1ccccc1 [Example 162, N-[5-phenyl-4-[4-(2-pyrrolidin-1-ylethoxymethyl)-1-piperidyl]thieno[2,3-d]pyrimidin-6-yl]acetamide]",< 500 nM
22,CC(C)Oc1ncccc1-c1csc2ncnc(N3CCC(COCCN4CCCC4)CC3)c12 [Example 328],< 500 nM
23,COCC1CCN(c2nc(NCCN3CCCC3)nc3scc(-c4ccccc4)c23)CC1 [Example 175],< 500 nM
24,OC1(CN2CCCC2)CCN(c2ncnc3scc(-c4ccccc4)c23)CC1 [Example 195],< 500 nM
25,CC(=O)NC1CCN(c2nc(N3CCC(COCCN4CCOCC4)CC3)c3c(-c4ccccc4)csc3n2)C1 (stereo not drawn) [Example 259],< 500 nM
